Reference: PMC9398717, “Comparison of Pharmacokinetic Profiles of 14 Major Bioactive Components in Normal and Arthritic Model Rats after Oral Administration of Angelicae pubescentis Radix by UPLC-MS/MS” (Evidence-based Complementary and Alternative Medicine : eCAM, 2022)

Assay: Pharmacokinetic study in normal and arthritic model rats after oral administration of APR extract (UPLC-MS/MS of plasma)
Conditions: for Cmax / MRT last / half-life / Tmax: Sprague-Dawley, rat, po, 4.1 mL/kg; for Cmax: C max; for MRT last: MRT0-t; for Tmax: t max
Method: One hundred grams of the APR sample was extracted by reflux with 800 mL 50% ethanol/water (v/v) for 3 times (2 hours each time), then combined with the filtrate and concentrated under vacuum with heat, and the concentration of APR extract was 0.37 g/mL. All the sample solutions were stored at 4°C before analysis.
Twelve SD rats were randomly divided into two groups (n = 6) and named as the model group and the normal group, respectively. The arthritic model was established by injecting 0.1 mL of complete Freund's adjuvant in rats. As a control, 0.1 mL of saline was injected. After 7 days, the plasma levels of MDA and TNF-α in normal and model rats were measured by an enzyme-linked immunosorbent assay kit to determine whether the modeling was successful.
The ultrahigh performance liquid chromatography (Thermo Scientific™, Vanquish™, (Waltham, MA, USA)) was used for the chromatographic analysis. UPLC separation was achieved on a Thermo Hypersil GOLD C18 column (100 mm × 2.1 mm, 1.9 μm), which was maintained at 35°C.
The UPLC was interfaced to a Thermo TSQ QUANTIS triple quadrupole mass spectrometer and equipped with an electrospray ionization (ESI) probe working in positive and negative ion exchange scanning mode.
Acetonitrile was used as a precipitation solvent, and protein precipitation was used to handle with the plasma samples. […] Then, the supernatant was dried in a nitrogen environment at 45°C, and the remaining residue was recombined with 100 μL 50% methanol aqueous and vortex for 1 min. Finally, 2 μL supernatant was injected into the UPLC-MS/MS system for analysis.

[1] = plasma, arthritic model rats (complete Freund's adjuvant), oral APR extract 4.1 mL/kg, mean ± SD, n = 6
[2] = plasma, normal rats, oral APR extract 4.1 mL/kg, mean ± SD, n = 6
[3] = plasma, t 1/2, arthritic model rats (complete Freund's adjuvant), oral APR extract 4.1 mL/kg, mean ± SD, n = 6
[4] = plasma, t 1/2, normal rats, oral APR extract 4.1 mL/kg, mean ± SD, n = 6
[5] = oral APR, concentration-time curve
[6] = in vivo, arthritic model rats (complete Freund's adjuvant), oral APR extract 4.1 mL/kg, plasma, mean ± SD, n = 6
[7] = in vivo, normal rats, oral APR extract 4.1 mL/kg, plasma, mean ± SD, n = 6

| SMILES | Cmax [1] [ng/mL] | Cmax [2] [ng/mL] | MRT last [1] [h] | MRT last [2] [h] | half-life [3] [h] | half-life [4] [h] | Tmax [1] [h] | Tmax [2] [h] | change of AUC0-t in model rats compared with normal rats (model vs normal rats, oral APR) | change of Cmax in model rats compared with normal rats (model vs normal rats, oral APR) | change of CL in model rats compared with normal rats (model vs normal rats, oral APR) | change of MRT in model rats compared with normal rats (model vs normal rats, oral APR) | also measured |
| --- | --- | --- | --- | --- | --- | --- | --- | --- | --- | --- | --- | --- | --- |
| O=C(/C=C/c1ccc(O)c(O)c1)O[C@@H]1[C@H](O)C[C@@](O)(C(=O)O)C[C@H]1OC(=O)/C=C/c1ccc(O)c(O)c1 [3,4-diCQA, isochlorogenic acid B] | 79.7 ± 7.11 | 85.7 ± 8.14 | 19.8 ± 0.4 | 21.2 ± 0.73 | 84.5 ± 24.3 | 58 ± 12 | 0.29 ± 0.1 | 0.29 ± 0.1 | decreased |  |  |  |  |
| O=C(C=Cc1ccc(O)c(O)c1)OC1CC(O)(C(=O)O)CC(OC(=O)C=Cc2ccc(O)c(O)c2)C1O (stereo not drawn) [3,5-diCQA, isochlorogenic acid A] | 405 ± 49.2 | 293 ± 47.7 | 18.8 ± 0.49 | 21.1 ± 0.68 | 59.5 ± 17.2 | 33.9 ± 14.3 | 0.18 ± 0.03 | 0.18 ± 0.03 | decreased | increasing |  |  | change of AUC0-∞ in model rats compared with normal rats (model vs normal rats, oral APR): increasing; change of t1/2 in model rats compared with normal rats (model vs normal rats, oral APR): prolonging |
| COc1c2ccoc2cc2oc(=O)ccc12 [Bergapten, bergapten] | 518 ± 42.9 | 383 ± 95.8 | 7.11 ± 0.09 | 9.4 ± 0.34 | 7.16 ± 0.41 | 9.41 ± 2.12 | 4.67 ± 1.03 | 3.67 ± 0.82 |  |  | decreased | shortened | time of first plasma peak after administration of APR [5]: 5 min; time of second plasma peak after administration of APR [5]: 4 h |
| O=C(/C=C/c1ccc(O)c(O)c1)O[C@@H]1C[C@](O)(C(=O)O)C[C@@H](O)[C@H]1O [Chlorogenic acid, chlorogenic acid] | 2760 ± 264 |  | 8.68 ± 0.52 | 5.95 ± 0.28 | 52 ± 13.2 | 27.9 ± 14.8 | 0.45 ± 0.1 | 0.54 ± 0.36 | increased | increased |  | longer | change of t1/2 in model rats compared with normal rats (model vs normal rats, oral APR): longer; C max (normal rats, oral APR extract 4.1 mL/kg, plasma, mean ± SD, n = 6): 1669.61 ± 25.80 ng/mL |
| C/C=C(/C)C(=O)OC(C)(C)[C@@H]1Cc2c(ccc3ccc(=O)oc23)O1 [Columbianadin, columbianadin] | 1500 ± 48.2 | 1680 ± 222 | 11.5 ± 0.87 | 12.3 ± 0.57 | 16.5 ± 4.83 | 16.4 ± 3.96 | 0.23 ± 0.03 | 0.23 ± 0.03 |  |  | decreased |  |  |
| CC(C)(O)[C@@H]1Cc2c(ccc3ccc(=O)oc23)O1 [Columbianetin, columbianetin] | 2220 ± 168 | 3120 ± 242 | 12.1 ± 0.2 | 13.3 ± 0.36 | 6.07 ± 1.28 | 6.04 ± 0.12 | 9 ± 1.09 | 9.67 ± 0.82 | decreased | decreased | increased | shortened | change of AUC0-∞ in model rats compared with normal rats (model vs normal rats, oral APR): decreased |
| O=C(/C=C/c1ccc(O)c(O)c1)O[C@H]1[C@H](O)C[C@](O)(C(=O)O)C[C@H]1O [Cryptochlorogenic acid, cryptochlorogenic acid] | 189 ± 8.7 | 143 ± 4.63 | 19.5 ± 0.55 | 18.3 ± 0.46 | 48.4 ± 10.5 | 34.5 ± 17.6 | 0.45 ± 0.1 | 0.42 ± 0.12 | increased | increased |  | longer | change of t1/2 in model rats compared with normal rats (model vs normal rats, oral APR): longer |
| CC(C)=CCOc1c2ccoc2cc2oc(=O)ccc12 [Isoimperatorin, isoimperatorin] | 232 ± 21 | 224 ± 26.8 | 15.7 ± 0.65 | 15.1 ± 0.57 | 26.8 ± 5.46 | 26.9 ± 8.34 | 0.58 ± 0.2 | 0.58 ± 0.2 |  |  |  |  |  |
| O=C(C=Cc1ccc(O)c(O)c1)OC1CC(O)(C(=O)O)CC(O)C1O (stereo not drawn) [Neochlorogenic acid] | 531 ± 24.1 | 420 ± 58.6 | 15.6 ± 0.26 | 15.6 ± 0.68 | 31.8 ± 10.2 | 39.9 ± 16.5 | 0.23 ± 0.03 | 0.2 ± 0.04 |  |  |  |  | change in the pharmacokinetic parameters in normal and model rats (model vs normal rats, oral APR): no significant change |
| COc1ccc2ccc(=O)oc2c1CC=C(C)C [Osthol, osthol] | 4560 ± 272 | 3640 ± 286 | 6.94 ± 0.42 | 6.53 ± 0.29 | 6.42 ± 0.69 | 13.4 ± 0.51 | 0.91 ± 0.2 | 1.16 ± 0.4 |  |  | decreased |  |  |
| O=c1ccc2cc3ccoc3cc2o1 [Psoralen, psoralen] | 327 ± 42.5 | 210 ± 27.6 | 12.9 ± 0.22 | 14.3 ± 0.31 | 5.98 ± 0.44 | 9.8 ± 3.28 | 7.66 ± 0.81 | 8 ± 1.26 |  |  | decreased | shortened |  |
| COc1c2occc2cc2ccc(=O)oc12 [Xanthotoxin, xanthotoxin] |  |  |  |  |  |  |  |  |  |  |  |  | Cmax [6]: 528 ± 35 ng/mL; Cmax [7]: 554 ± 76 ng/mL; MRT last [6]: 10.3 ± 0.51 h; MRT last [7]: 10.7 ± 0.53 h; half-life (in vivo, t 1/2, arthritic model rats (complete Freund's adjuvant), oral APR extract 4.1 mL/kg, plasma, mean ± SD, n = 6): 14.2 ± 3.76 h; half-life (in vivo, t 1/2, normal rats, oral APR extract 4.1 mL/kg, plasma, mean ± SD, n = 6): 12.1 ± 1.73 h; Tmax [6]: 3.33 ± 1.03 h; Tmax [7]: 4.33 ± 0.82 h |
